Measurements published in patent US20160303184A1, “VANCOMYCIN-SUGAR CONJUGATES AND USES THEREOF” (JAWAHARLAL NEHRU CENTRE FOR ADVANCED SCIENTIFIC RESEARCH …, priority 2013, published 2016).
Converted amounts (≈) assume the structure as drawn. Like-named read-outs stand apart in the source and are kept apart here.

Legend:
Type in all cases: cell-based
[1] = system: Vancomycin-resistant E. faecalis (VanA, ATCC 51575); experiment: MIC, micro-dilution broth, VRE (VanB); conditions: Enterococcus faecalis; E. faecalis ATCC 51575; read-out: MIC VRE (VanB)
[2] = system: methicillin-resistant S. epidermidis clinical isolate; experiment: MIC, clinical isolate of methicillin-resistant S. epidermidis; conditions: Staphylococcus epidermidis, read-out: MIC S. epidermidis
[3] = system: methicillin-resistant S. aureus clinical isolate; experiment: MIC, clinical isolate of methicillin-resistant S. aureus; conditions: Staphylococcus aureus, read-out: MIC S. aureus
Protocol: (§1) All test compounds were assayed in a micro-dilution broth format. Stock solutions were made by serially diluting the compounds using autoclaved millipore water or broth media. The antibacterial activity of the compounds was determined against methicillin-sensitive S. aureus (MSSA), methicillin-resistant S. aureus (MRSA), vancomycin-intermediate-resistant S. aureus (VISA), vancomycin-sensitive E. faecium (VSE) and vancomycin-resistant E. faecium (VRE). Bacteria, to be tested, were grown for about 10 h in the suitable media, MSSA, MRSA and VISA were grown in yeast-dextrose broth (about 1 g of beef extract, about 2 g of yeast extract, about 5 g of peptone and about 5 g of NaCl in about 1000 mL of sterile distilled water (pH-7)). For solid media, about 5% agar was used along with above mentioned composition. VSE and VRE were cultured in brain heart infusion broth (Himedia). The bacterial samples were freeze dried and stored at −80° C. About 5 μL of these stocks were added to about 3 mL of the nutrient broth and the culture was grown for about 6 h at about 37° C. prior to the experiments. This 6 h grown culture gives about 10^9 cfu/mL and this was determined by spread plating method. The 6 h grown culture was diluted to give effective cell concentration of about 10^5 cfu/mL which was then used for determining MIC. Compounds were serially diluted, in sterile water (2 fold dilution is employed) in a way that the working concentration was about 10 μM for MSSA, MRSA, and VSE while for VRE and VISA it was about 100 μM. About 50 μL of these serial dilutions were added to the wells of 96 well plate followed by the addition of about 150 μL of bacterial solution. The plates were then incubated at about 37° C., 150 rpm in the incubator and O.D at 600 nm was recorded at an interval of about 10 h and 24 h using TECAN (Infinite series, M200 pro) Plate Reader. Each concentration had triplicate values and the whole experiment was done at least twice and the MIC value was determined by taking the average of triplicate. O. D. values for each concentration and plotting it against concentration. The data was then subjected to sigmoidal fitting. From the curve the MIC value was determined, as the point in the curve where the O. D. was similar to that of control having no bacteria.

[4] = system: Vancomycin intermediate resistant S. aureus; experiment: MIC, micro-dilution broth, VISA; conditions: read-out: MIC VISA
Protocol: as §1

[5] = system: Methicillin-resistant S. aureus (ATCC 33591); experiment: MIC, micro-dilution broth, MRSA; conditions: ATCC 33591, read-out: MIC MRSA
Protocol: as §1

[6] = system: methicillin-resistant S. haemolyticus clinical isolate; experiment: MIC, clinical isolate of methicillin-resistant S. haemolyticus; conditions: Staphylococcus haemolyticus; clinical isolate, methicillin-resistant; read-out: MIC S. haemolyticus
[7] = system: Vancomycin-resistant E. faecium (VanA, ATCC 51559); experiment: MIC, micro-dilution broth, VRE (VanA); conditions: E. faecium ATCC 51559, read-out: MIC VRE (VanA)
Protocol: as §1

[8] = system: Methicillin-sensitive S. aureus (MTCC 737); experiment: MIC, micro-dilution broth, MSSA; conditions: MTCC 737, read-out: MIC MSSA
Protocol: as §1

[9] = system: Vancomycin-sensitive E. faecium (ATCC 19634); experiment: MIC, micro-dilution broth, VSE; conditions: read-out: MIC VSE
Protocol: as §1

[10] = Enterococcus faecium, ATCC19634, ATCC 19634

| Structure (SMILES) | MIC [1] [µM] | MIC [2] [µM] | MIC [3] [µM] | MIC ([4]; Staphylococcus aureus, VISA) [µM] | MIC ([5]; Staphylococcus aureus) [µM] | MIC [6] [µM] | MIC ([7]; Enterococcus faecium) [µM] | MIC ([8]; Staphylococcus aureus) [µM] | MIC [9, 10] [µM] | MIC [4] [µM] | MIC [5] [µM] | MIC [7] [µM] | MIC [8] [µM] | MIC ([9]; ATCC 19634) [µM] |
| --- | --- | --- | --- | --- | --- | --- | --- | --- | --- | --- | --- | --- | --- | --- |
| CCCCCCCCN[C@]1(C)C[C@H](OC2C(O)[C@@H](O)C(CO)O[C@@H]2Oc2c3cc4cc2Oc2ccc(cc2Cl)[C@@H](O)[C@@H](NC(=O)[C@@H](CC(C)C)NC)C(=O)N[C@@H](CC(N)=O)C(=O)N[C@H]4C(=O)N[C@H]2C(=O)N[C@H](C(=O)N[C@H](C(=O)NCCCNC(=O)[C@H](O)[C@@H](O)[C@H](OC4OC(CO)C(O)C(O)C4O)[C@H](O)CO)c4cc(O)cc(O)c4-c4cc2ccc4O)[C@H](O)c2ccc(c(Cl)c2)O3)OC(C)[C@@H]1O (stereo partly drawn) [Compound 17] | 6.2 (≈ 12.1 µg/mL) | 0.3 (≈ 0.587 µg/mL) | 0.2 (≈ 0.392 µg/mL) | 0.31 (≈ 0.607 µg/mL) | 0.3 (≈ 0.587 µg/mL) | 0.4 (≈ 0.783 µg/mL) | 2 (≈ 3.92 µg/mL) | 0.2 (≈ 0.392 µg/mL) | 0.2 (≈ 0.392 µg/mL) |  |  |  |  |  |
| CN[C@H](CC(C)C)C(=O)N[C@H]1C(=O)N[C@@H](CC(N)=O)C(=O)N[C@H]2C(=O)N[C@H]3C(=O)N[C@H](C(=O)N[C@H](C(=O)NCCCNC(=O)[C@H](O)[C@@H](O)[C@H](O)[C@H](O)CO)c4cc(O)cc(O)c4-c4cc3ccc4O)[C@H](O)c3ccc(c(Cl)c3)Oc3cc2cc(c3O[C@H]2OC(CO)[C@H](O)C(O)C2O[C@H]2C[C@@](C)(N)[C@H](O)C(C)O2)Oc2ccc(cc2Cl)[C@H]1O (stereo partly drawn) [Compound 3] |  |  |  | 0.88 (≈ 1.48 µg/mL) | 0.7 (≈ 1.18 µg/mL) |  | 54 (≈ 90.9 µg/mL) | 0.6 (≈ 1.01 µg/mL) | 0.5 (≈ 0.842 µg/mL) |  |  |  |  |  |
| CN[C@H](CC(C)C)C(=O)N[C@H]1C(=O)N[C@@H](CC(N)=O)C(=O)N[C@H]2C(=O)N[C@H]3C(=O)N[C@H](C(=O)N[C@H](C(=O)NCCCNC(=O)[C@H](O)[C@@H](O)[C@H](OC4OC(CO)C(O)C(O)C4O)[C@H](O)CO)c4cc(O)cc(O)c4-c4cc3ccc4O)[C@H](O)c3ccc(c(Cl)c3)Oc3cc2cc(c3O[C@H]2OC(CO)[C@H](O)C(O)C2O[C@H]2C[C@@](C)(N)[C@H](O)C(C)O2)Oc2ccc(cc2Cl)[C@H]1O (stereo partly drawn) [Compound 4] |  |  |  | 0.3 (≈ 0.554 µg/mL) | 0.38 (≈ 0.701 µg/mL) |  | 36 (≈ 66.4 µg/mL) | 0.3 (≈ 0.554 µg/mL) | 0.4 (≈ 0.738 µg/mL) |  |  |  |  |  |
| CCCCCCCCN[C@]1(C)C[C@H](OC2C(O)[C@@H](O)C(CO)O[C@@H]2Oc2c3cc4cc2Oc2ccc(cc2Cl)[C@@H](O)[C@@H](NC(=O)[C@@H](CC(C)C)NC)C(=O)N[C@@H](CC(N)=O)C(=O)N[C@H]4C(=O)N[C@H]2C(=O)N[C@H](C(=O)N[C@H](C(=O)O)c4cc(O)cc(O)c4-c4cc2ccc4O)[C@H](O)c2ccc(c(Cl)c2)O3)OC(C)[C@@H]1O (stereo partly drawn) [Compound 15] | 12.5 (≈ 19.5 µg/mL) |  |  | 0.4 (≈ 0.625 µg/mL) | 0.3 (≈ 0.468 µg/mL) |  | 25 (≈ 39 µg/mL) | 0.3 (≈ 0.468 µg/mL) | 0.4 (≈ 0.625 µg/mL) |  |  |  |  |  |
| CN[C@H](CC(C)C)C(=O)N[C@H]1C(=O)N[C@@H](CC(N)=O)C(=O)N[C@H]2C(=O)N[C@H]3C(=O)N[C@H](C(=O)N[C@H](C(=O)NCCCNCC(O)C(O)C(OC4OC(CO)C(O)C(O)C4O)C(O)CO)c4cc(O)cc(O)c4-c4cc3ccc4O)[C@H](O)c3ccc(c(Cl)c3)Oc3cc2cc(c3O[C@H]2OC(CO)[C@H](O)C(O)C2O[C@H]2C[C@@](C)(N)[C@H](O)C(C)O2)Oc2ccc(cc2Cl)[C@H]1O (stereo partly drawn) [Compound 6] |  |  |  |  |  |  |  |  |  | 0.99 (≈ 1.81 µg/mL) | 1.0 (≈ 1.83 µg/mL) | >100 | 1.0 (≈ 1.83 µg/mL) | 0.5 (≈ 0.916 µg/mL) |
| CCCCCCCCCCCCN[C@]1(C)C[C@H](OC2C(O)[C@@H](O)C(CO)O[C@@H]2Oc2c3cc4cc2Oc2ccc(cc2Cl)[C@@H](O)[C@@H](NC(=O)[C@@H](CC(C)C)NC)C(=O)N[C@@H](CC(N)=O)C(=O)N[C@H]4C(=O)N[C@H]2C(=O)N[C@H](C(=O)N[C@H](C(=O)O)c4cc(O)cc(O)c4-c4cc2ccc4O)[C@H](O)c2ccc(c(Cl)c2)O3)OC(C)[C@@H]1O (stereo partly drawn) [Compound 16] | 3.1 (≈ 5.01 µg/mL) |  |  | 0.3 (≈ 0.485 µg/mL) | 0.3 (≈ 0.485 µg/mL) |  | 7 (≈ 11.3 µg/mL) | 0.3 (≈ 0.485 µg/mL) | 0.2 (≈ 0.324 µg/mL) |  |  |  |  |  |
| CCCCCCCCCCCCN[C@]1(C)C[C@H](OC2C(O)[C@@H](O)C(CO)O[C@@H]2Oc2c3cc4cc2Oc2ccc(cc2Cl)[C@@H](O)[C@@H](NC(=O)[C@@H](CC(C)C)NC)C(=O)N[C@@H](CC(N)=O)C(=O)N[C@H]4C(=O)N[C@H]2C(=O)N[C@H](C(=O)N[C@H](C(=O)NCCCNC(=O)[C@H](O)[C@@H](O)[C@H](OC4OC(CO)C(O)C(O)C4O)[C@H](O)CO)c4cc(O)cc(O)c4-c4cc2ccc4O)[C@H](O)c2ccc(c(Cl)c2)O3)OC(C)[C@@H]1O (stereo partly drawn) [Compound 18] | 1 (≈ 2.01 µg/mL) | 0.35 (≈ 0.705 µg/mL) | 0.3 (≈ 0.604 µg/mL) | 0.22 (≈ 0.443 µg/mL) | 0.3 (≈ 0.604 µg/mL) | 0.5 (≈ 1.01 µg/mL) | 0.8 (≈ 1.61 µg/mL) | 0.2 (≈ 0.403 µg/mL) | 0.2 (≈ 0.403 µg/mL) |  |  |  |  |  |
| CN[C@H](CC(C)C)C(=O)N[C@H]1C(=O)N[C@@H](CC(N)=O)C(=O)N[C@H]2C(=O)N[C@H]3C(=O)N[C@H](C(=O)N[C@H](C(=O)NCCOC4OC(CO)C(O)C(O)C4O)c4cc(O)cc(O)c4-c4cc3ccc4O)[C@H](O)c3ccc(c(Cl)c3)Oc3cc2cc(c3O[C@H]2OC(CO)[C@H](O)C(O)C2O[C@H]2C[C@@](C)(N)[C@H](O)C(C)O2)Oc2ccc(cc2Cl)[C@H]1O (stereo partly drawn) [Compound 1] |  |  |  | 2.4 (≈ 3.97 µg/mL) | 1.2 (≈ 1.99 µg/mL) |  | > 100 | 1.4 (≈ 2.32 µg/mL) | 0.6 (≈ 0.993 µg/mL) |  |  |  |  |  |
| CN[C@H](CC(C)C)C(=O)N[C@H]1C(=O)N[C@@H](CC(N)=O)C(=O)N[C@H]2C(=O)N[C@H]3C(=O)N[C@H](C(=O)N[C@H](C(=O)NCCOC4OC(CO)C(O)C(O)C4O)c4cc(O)cc(O)c4-c4cc3ccc4O)[C@H](O)c3ccc(c(Cl)c3)Oc3cc2cc(c3O[C@H]2OC(CO)[C@H](O)C(O)C2O[C@H]2C[C@@](C)(N)[C@H](O)C(C)O2)Oc2ccc(cc2Cl)[C@H]1O (stereo partly drawn) [Compound 2] |  |  |  |  |  |  |  |  |  | 2.02 (≈ 3.34 µg/mL) | 1.4 (≈ 2.32 µg/mL) | >100 | 1.2 (≈ 1.99 µg/mL) | 1.2 (≈ 1.99 µg/mL) |
| CCCCCCCCCCN[C@]1(C)C[C@H](OC2C(O)[C@@H](O)C(CO)O[C@@H]2Oc2c3cc4cc2Oc2ccc(cc2Cl)[C@@H](O)[C@@H](NC(=O)[C@@H](CC(C)C)NC)C(=O)N[C@@H](CC(N)=O)C(=O)N[C@H]4C(=O)N[C@H]2C(=O)N[C@H](C(=O)N[C@H](C(=O)O)c4cc(O)cc(O)c4-c4cc2ccc4O)[C@H](O)c2ccc(c(Cl)c2)O3)OC(C)[C@@H]1O (stereo partly drawn) [Compound 8] | 6.2 (≈ 9.86 µg/mL) |  |  | 0.32 (≈ 0.509 µg/mL) | 0.3 (≈ 0.477 µg/mL) |  | 14 (≈ 22.3 µg/mL) | 0.3 (≈ 0.477 µg/mL) | 0.2 (≈ 0.318 µg/mL) |  |  |  |  |  |
| CN[C@H](CC(C)C)C(=O)N[C@H]1C(=O)N[C@@H](CC(N)=O)C(=O)N[C@H]2C(=O)N[C@H]3C(=O)N[C@H](C(=O)N[C@H](C(=O)NCCCNCC(O)C(O)C(OC4OC(CO)C(O)C(O)C4O)C(O)CO)c4cc(O)cc(O)c4-c4cc3ccc4O)[C@H](O)c3ccc(c(Cl)c3)Oc3cc2cc(c3O[C@H]2OC(CO)[C@H](O)C(O)C2O[C@H]2C[C@@](C)(N)[C@H](O)C(C)O2)Oc2ccc(cc2Cl)[C@H]1O (stereo partly drawn) [Compound 5] |  |  |  | 1.08 (≈ 1.98 µg/mL) | 1 (≈ 1.83 µg/mL) |  | > 100 | 1 (≈ 1.83 µg/mL) | 0.66 (≈ 1.21 µg/mL) |  |  |  |  |  |
